In article PMC12013494, “Covalent inhibition of the SARS-CoV-2 NiRAN domain via an active-site cysteine” (The Journal of Biological Chemistry, 2025):

Experiments:
[1] = molecular target: nsp12 (Severe acute respiratory syndrome coronavirus 2, UniProt P0DTD1); format: binding, SARS-CoV-2
[2] = molecular target: SARS-CoV-2 nsp12 (Severe acute respiratory syndrome coronavirus 2, UniProt P0DTD1); format: binding
[3] = molecular target: T1, SARS-CoV-2 nsp12 NiRAN domain (Severe acute respiratory syndrome coronavirus 2, UniProt P0DTD1); assay: biochemical; conditions: for IC50 / IC50 for NiRAN-dependent AMPylation of nsp9: n = 4; for IC50: read-out: IC50 for NiRAN-dependent AMPylation of nsp9
[4] = molecular target: T1, SARS-CoV-2 nsp12 NiRAN domain; format: biochemical
[5] = molecular target: human SelO (Homo sapiens, UniProt Q9BVL4, U667C); format: binding
[6] = molecular target: nsp12 RdRp (Severe acute respiratory syndrome coronavirus 2, UniProt P0DTD1); format: biochemical, SARS-CoV-2
[7] = tested on: SARS-CoV-2-Wu-1-zsGreen; assay: microbe, parasite or virus in culture; format: cell-based; conditions: for EC50: Severe acute respiratory syndrome coronavirus 2, read-out: EC50 for viral replication (infectivity)
[8] = molecular target: SARS-CoV-1 nsp12 (Severe acute respiratory syndrome coronavirus, UniProt P0C6X7); format: binding
[9] = molecular target: T2, Flag-nsp12 (Severe acute respiratory syndrome coronavirus 2, UniProt P0DTD1); format: cell-based, SARS-CoV-2
[10] = molecular target: MERS nsp12 (Middle East respiratory syndrome-related coronavirus, UniProt K9N7C7); format: binding, MERS-CoV
[11] = molecular target: T2, Flag-nsp12; format: cell-based, SARS-CoV-2; remark: listed apart in the source
[12] = tested on: SARS-CoV-2; conditions: cited from earlier work
[13] = molecular target: SARS-CoV-2 main protease; conditions: cited from earlier work
[14] = tested on: NiRAN; conditions: cited from earlier work

Sequence of human SelO (Q9BVL4 with tags, fused parts or gaps U667C limits assumed): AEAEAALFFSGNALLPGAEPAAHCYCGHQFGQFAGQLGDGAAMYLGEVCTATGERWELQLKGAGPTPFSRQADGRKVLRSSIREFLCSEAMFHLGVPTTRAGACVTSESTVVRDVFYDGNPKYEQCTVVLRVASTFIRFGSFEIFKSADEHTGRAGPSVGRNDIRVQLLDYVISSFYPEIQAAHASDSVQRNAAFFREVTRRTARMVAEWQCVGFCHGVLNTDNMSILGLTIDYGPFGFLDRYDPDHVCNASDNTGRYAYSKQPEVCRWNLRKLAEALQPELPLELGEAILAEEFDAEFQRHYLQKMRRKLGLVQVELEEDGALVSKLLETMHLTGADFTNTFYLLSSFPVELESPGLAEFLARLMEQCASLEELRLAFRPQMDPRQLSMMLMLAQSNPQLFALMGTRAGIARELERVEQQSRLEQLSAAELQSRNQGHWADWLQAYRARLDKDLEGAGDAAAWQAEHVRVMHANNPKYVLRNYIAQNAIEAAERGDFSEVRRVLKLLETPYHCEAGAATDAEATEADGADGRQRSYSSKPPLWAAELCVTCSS
Sequence of MERS nsp12 (K9N7C7 4378-5310 limits assumed): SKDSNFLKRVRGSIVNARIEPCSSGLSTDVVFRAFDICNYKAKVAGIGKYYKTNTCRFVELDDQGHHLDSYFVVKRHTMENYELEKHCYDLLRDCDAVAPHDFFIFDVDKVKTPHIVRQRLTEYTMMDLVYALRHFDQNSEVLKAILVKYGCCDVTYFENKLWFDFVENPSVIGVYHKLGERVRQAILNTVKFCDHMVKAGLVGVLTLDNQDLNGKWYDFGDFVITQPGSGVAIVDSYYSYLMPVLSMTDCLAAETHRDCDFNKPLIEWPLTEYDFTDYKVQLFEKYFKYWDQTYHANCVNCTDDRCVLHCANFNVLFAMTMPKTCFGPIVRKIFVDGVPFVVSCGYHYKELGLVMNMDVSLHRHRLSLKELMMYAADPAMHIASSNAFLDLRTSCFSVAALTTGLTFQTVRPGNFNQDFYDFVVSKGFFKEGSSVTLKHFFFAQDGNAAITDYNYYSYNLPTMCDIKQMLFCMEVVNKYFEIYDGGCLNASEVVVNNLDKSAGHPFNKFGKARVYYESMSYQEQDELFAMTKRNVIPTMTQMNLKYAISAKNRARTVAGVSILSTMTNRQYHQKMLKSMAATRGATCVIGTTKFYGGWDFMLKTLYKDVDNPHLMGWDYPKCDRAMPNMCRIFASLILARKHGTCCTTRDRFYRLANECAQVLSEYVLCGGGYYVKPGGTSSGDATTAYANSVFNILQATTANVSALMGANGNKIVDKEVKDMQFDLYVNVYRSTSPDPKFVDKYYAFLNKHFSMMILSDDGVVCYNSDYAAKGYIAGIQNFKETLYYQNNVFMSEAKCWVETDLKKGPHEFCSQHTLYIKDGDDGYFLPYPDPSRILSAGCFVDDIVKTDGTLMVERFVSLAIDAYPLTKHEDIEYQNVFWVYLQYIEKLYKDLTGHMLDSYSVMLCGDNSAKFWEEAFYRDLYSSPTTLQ

O=c1cc(CCl)nc2ccc(Cl)cn12 [NCI-1]
effect on thermal stability of nsp12 [1]: increase in the thermal stability of nsp12
covalent binding to nsp12 (intact mass shift) [2]: covalent addition
IC50 [3]: 7.32 µM
inhibition of NiRAN-dependent RNAylation of nsp9 [4]: inhibition of NiRAN-dependent RNAylation of nsp9

COC(=O)c1cnn2c(O)cc(CCl)nc12 [NCI-2, methyl 5-(chloromethyl)-7-hydroxypyrazolo[1,5-a]pyrimidine-3-carboxylate]
binding to SelO [5]: fails to bind
effect on thermal stability of nsp12 [1]: increase in the thermal stability of nsp12
covalent binding to nsp12 (intact mass shift) [2]: covalent addition
effect on nsp12 polymerase (RdRp) activity [6]: did not impact nsp12 polymerase activity
concentration at which inhibition of viral replication was observed [7]: 200 µM
EC50 [7]: > 200 µM
Ki [3]: 16.3 µM
IC50 [3]: 4.36 µM
kinact ([3]; read-out: rate of inactivation constant kinact): 0.0024 s⁻¹
kinact/KI ([3]; read-out: second order rate constant kinact/Ki): 147 M⁻¹ s⁻¹
covalent binding to SARS-CoV-1 nsp12 [8]: covalently binds
RNAylation activity of Flag-nsp12 from treated cells [9]: marked reduction in its ability to RNAylate nsp9
inhibition of NiRAN-dependent RNAylation of nsp9 [4]: inhibition of NiRAN-dependent RNAylation of nsp9
binding to MERS NiRAN (nsp12) [10]: fails to bind

C#CCOC(=O)c1cnn2c(O)cc(CCl)nc12 [NCI-3, Prop-2-yn-1-yl 5-(chloromethyl)-7-hydroxypyrazolo[1,5-a]pyrimidine-3-carboxylate]
binding to nsp12 in cells (biotinylation after click reaction) [11]: major biotinylated species corresponding to nsp12
IC50 [3]: 10.4 µM

C#CCNc1cc(CCl)nc2c(C(=O)OC)cnn12 [SW395929-1, Methyl 5-(chloromethyl)-7-(prop-2-yn-1-ylamino)pyrazolo[1,5-a]pyrimidine-3-carboxylate]
IC50 for NiRAN-dependent AMPylation of nsp9 [3]: No activity up to 500 μM

O=C(O)c1cnn2c(O)cc(CCl)nc12 [SW396061-1, 5-(Chloromethyl)-7-hydroxypyrazolo[1,5-a]pyrimidine-3-carboxylic acid]
IC50 for NiRAN-dependent AMPylation of nsp9 [3]: No activity up to 500 μM

C#CCNC(=O)c1cnn2c(O)cc(CCl)nc12 [SW396062-1, 5-(Chloromethyl)-7-hydroxy-N-(prop-2-yn-1-yl)pyrazolo[1,5-a]pyrimidine-3-carboxamide]
IC50 [3]: > 500 µM

COC(=O)c1cnn2c(O)cc(CO)nc12 [SW396063-1, Methyl 7-hydroxy-5-(hydroxymethyl)pyrazolo[1,5-a]pyrimidine-3-carboxylate]
IC50 [3]: 371 µM

COC(=O)c1cnn2c(O)cc(C=O)nc12 [SW396064-1, Methyl 5-formyl-7-hydroxypyrazolo[1,5-a]pyrimidine-3-carboxylate]
IC50 for NiRAN-dependent AMPylation of nsp9 [3]: No activity up to 500 μM

COC(=O)c1cnn2c(O)cc(/C=C/C(=O)OC(C)(C)C)nc12 [SW396065-1, Methyl (E)-5-(3-(tert-butoxy)-3-oxoprop-1-en-1-yl)-7-hydroxypyrazolo[1,5-a]pyrimidine-3-carboxylate]
IC50 for NiRAN-dependent AMPylation of nsp9 [3]: No activity up to 500 μM

COC(=O)c1cnn2c(O)cc(/C=C/C(=O)O)nc12 [SW396066-1, (E)-3-(7-hydroxy-3-(methoxycarbonyl)pyrazolo[1,5-a]pyrimidin-5-yl)acrylic acid]
IC50 for NiRAN-dependent AMPylation of nsp9 [3]: No activity up to 500 μM

COC(=O)c1cnn2c(O)cc(/C=C/C(N)=O)nc12 [SW396067-1, Methyl (E)-5-(3-amino-3-oxoprop-1-en-1-yl)-7-hydroxypyrazolo[1,5-a]pyrimidine-3-carboxylate]
IC50 for NiRAN-dependent AMPylation of nsp9 [3]: No activity up to 500 μM

COC(=O)c1cn(C)n2c(=O)cc(CCl)nc12 [SW396262-1, Methyl 5-(chloromethyl)-1-methyl-7-oxo-1,7-dihydropyrazolo[1,5-a]pyrimidine-3-carboxylate]
IC50 [3]: > 500 µM

COC(=O)c1cnn2c(OC)cc(CCl)nc12 [SW396271-1, Methyl 5-(chloromethyl)-7-methoxypyrazolo[1,5-a]pyrimidine-3-carboxylate]
IC50 [3]: > 500 µM

COC(=O)c1cnn2c(O)cc(C(C)Cl)nc12 (stereo not shown) [SW396272-1, Methyl 5-(1-chloroethyl)-7-hydroxypyrazolo[1,5-a]pyrimidine-3-carboxylate]
IC50 for NiRAN-dependent AMPylation of nsp9 [3]: No activity up to 500 μM

COC(=O)c1cnn2c(O)cc(C#N)nc12 [SW396744-1, Methyl 5-cyano-7-hydroxypyrazolo[1,5-a]pyrimidine-3-carboxylate]
IC50 for NiRAN-dependent AMPylation of nsp9 [3]: No activity up to 500 μM

COC(=O)c1cnn2c(O)cc(CCCl)nc12 [SW398309-1, Methyl 5-(2-chloroethyl)-7-hydroxypyrazolo[1,5-a]pyrimidine-3-carboxylate]
IC50 for NiRAN-dependent AMPylation of nsp9 [3]: No activity up to 500 μM

COC(=O)c1cnn2c(O)cc(CCO)nc12 [SW398310-1, Methyl 7-hydroxy-5-(2-hydroxyethyl)pyrazolo[1,5-a]pyrimidine-3-carboxylate]
IC50 for NiRAN-dependent AMPylation of nsp9 [3]: No activity up to 500 μM

C#Cc1cc(O)n2ncc(C(=O)OC)c2n1 [SW461447-1, Methyl 5-ethynyl-7-hydroxypyrazolo[1,5-a]pyrimidine-3-carboxylate]
IC50 for NiRAN-dependent AMPylation of nsp9 [3]: No activity up to 500 μM

COC(=O)c1cnn2c(O)cc(Cl)nc12 [SW461448-1]
IC50 for NiRAN-dependent AMPylation of nsp9 [3]: No activity up to 500 μM

CC(C)(C)[C@H](NC(=O)C(F)(F)F)C(=O)N1C[C@H]2[C@@H]([C@H]1C(=O)N[C@H](C#N)C[C@@H]1CCNC1=O)C2(C)C [nirmatrelvir]
EC50 [12]: 0.075 µM
Ki [13]: 0.003 µM

CCC(CC)COC(=O)[C@H](C)N[P@](=O)(OC[C@H]1O[C@@](C#N)(c2ccc3c(N)ncnn23)[C@H](O)[C@@H]1O)Oc1ccccc1 [remdesivir, reference compound]
EC50 [7]: 0.64 µM
inhibition of NiRAN activity [14]: inhibit NiRAN activity
